Columns and labels:
[1] = biological target: Norepinephrine transporter (Rattus norvegicus, UniProt Q9WTR4); experiment: In vitro inhibition of [3H]norepinephrine uptake in rat brain synaptosomes; type: subcellular
[2] = biological target: Sodium-dependent dopamine transporter (Rattus norvegicus, UniProt P23977); experiment: In vitro inhibition of [3H]dopamine uptake in rat brain synaptosomes; type: subcellular
Rattus norvegicus [3] = experiment: Inhibition of phenylephrine induced pressor response in pithed rats (following i.v. administration of […]); type: functional; settings: route intravenous
[4] = biological target: T1, Adrenergic receptor alpha-1 (Rattus norvegicus, UniProt P15823+P23944+P43140); experiment: Inhibition of [3H]prazosin binding to alpha-1 adrenergic receptor from rat cortical membranes; type: cell membranes, Membrane
T1 sequence (P15823 whole entry): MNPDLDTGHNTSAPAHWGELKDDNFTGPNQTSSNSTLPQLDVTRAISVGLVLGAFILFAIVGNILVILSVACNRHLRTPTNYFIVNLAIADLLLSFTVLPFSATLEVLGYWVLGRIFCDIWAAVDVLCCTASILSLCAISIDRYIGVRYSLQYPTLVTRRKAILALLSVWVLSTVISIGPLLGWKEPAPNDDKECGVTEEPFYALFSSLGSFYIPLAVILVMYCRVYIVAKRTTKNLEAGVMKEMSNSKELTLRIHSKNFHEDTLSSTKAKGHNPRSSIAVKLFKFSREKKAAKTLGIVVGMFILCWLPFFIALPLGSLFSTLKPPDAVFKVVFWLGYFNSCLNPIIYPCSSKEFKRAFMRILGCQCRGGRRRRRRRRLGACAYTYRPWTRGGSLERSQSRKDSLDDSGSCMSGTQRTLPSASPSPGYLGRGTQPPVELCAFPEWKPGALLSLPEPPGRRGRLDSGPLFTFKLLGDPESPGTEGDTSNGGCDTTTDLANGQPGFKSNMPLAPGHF
T1 sequence (P23944 whole entry): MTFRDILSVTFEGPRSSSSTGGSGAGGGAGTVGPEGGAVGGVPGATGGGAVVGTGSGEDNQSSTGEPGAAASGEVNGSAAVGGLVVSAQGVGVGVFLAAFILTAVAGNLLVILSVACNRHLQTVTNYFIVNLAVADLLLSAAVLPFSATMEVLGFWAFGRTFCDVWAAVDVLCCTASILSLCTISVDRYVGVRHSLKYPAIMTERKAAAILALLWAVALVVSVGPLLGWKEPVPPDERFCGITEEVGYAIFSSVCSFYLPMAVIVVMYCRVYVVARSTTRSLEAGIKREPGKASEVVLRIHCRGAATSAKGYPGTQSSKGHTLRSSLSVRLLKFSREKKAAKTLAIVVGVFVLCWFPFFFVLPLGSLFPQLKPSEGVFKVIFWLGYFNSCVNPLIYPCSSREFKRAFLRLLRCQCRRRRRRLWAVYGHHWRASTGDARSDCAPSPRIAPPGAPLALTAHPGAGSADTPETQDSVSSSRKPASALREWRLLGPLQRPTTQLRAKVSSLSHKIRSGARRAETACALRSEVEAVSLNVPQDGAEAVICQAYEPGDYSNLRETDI
T1 sequence (P43140 whole entry): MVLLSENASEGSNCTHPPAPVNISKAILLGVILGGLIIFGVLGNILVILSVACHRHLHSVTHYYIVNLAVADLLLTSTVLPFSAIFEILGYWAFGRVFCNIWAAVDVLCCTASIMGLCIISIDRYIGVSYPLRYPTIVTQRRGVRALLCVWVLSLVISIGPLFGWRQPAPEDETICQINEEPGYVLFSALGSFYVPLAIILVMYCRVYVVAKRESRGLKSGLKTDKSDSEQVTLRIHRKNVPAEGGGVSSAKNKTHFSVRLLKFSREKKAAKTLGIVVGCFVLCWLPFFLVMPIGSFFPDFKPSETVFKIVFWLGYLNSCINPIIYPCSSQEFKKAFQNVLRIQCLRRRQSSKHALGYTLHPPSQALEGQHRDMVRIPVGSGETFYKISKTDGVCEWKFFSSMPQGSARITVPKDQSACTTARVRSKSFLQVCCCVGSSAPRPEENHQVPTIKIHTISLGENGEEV

Rattus norvegicus [5] = experiment: Inhibition of 5-HT induced pressor response in pithed rats, after intravenous administration; type: functional
Rattus norvegicus [6] = experiment: Inhibition of 5-HT induced pressor response in pithed rats, after intravenous administration of 0.02 mg/kg; type: functional
[7] = biological target: Sodium-dependent serotonin transporter (Rattus norvegicus, UniProt P31652); experiment: In vitro inhibition of [3H]5-HT transporter uptake in rat brain synaptosomes; type: subcellular
Chain of Sodium-dependent serotonin transporter (P31652 whole entry): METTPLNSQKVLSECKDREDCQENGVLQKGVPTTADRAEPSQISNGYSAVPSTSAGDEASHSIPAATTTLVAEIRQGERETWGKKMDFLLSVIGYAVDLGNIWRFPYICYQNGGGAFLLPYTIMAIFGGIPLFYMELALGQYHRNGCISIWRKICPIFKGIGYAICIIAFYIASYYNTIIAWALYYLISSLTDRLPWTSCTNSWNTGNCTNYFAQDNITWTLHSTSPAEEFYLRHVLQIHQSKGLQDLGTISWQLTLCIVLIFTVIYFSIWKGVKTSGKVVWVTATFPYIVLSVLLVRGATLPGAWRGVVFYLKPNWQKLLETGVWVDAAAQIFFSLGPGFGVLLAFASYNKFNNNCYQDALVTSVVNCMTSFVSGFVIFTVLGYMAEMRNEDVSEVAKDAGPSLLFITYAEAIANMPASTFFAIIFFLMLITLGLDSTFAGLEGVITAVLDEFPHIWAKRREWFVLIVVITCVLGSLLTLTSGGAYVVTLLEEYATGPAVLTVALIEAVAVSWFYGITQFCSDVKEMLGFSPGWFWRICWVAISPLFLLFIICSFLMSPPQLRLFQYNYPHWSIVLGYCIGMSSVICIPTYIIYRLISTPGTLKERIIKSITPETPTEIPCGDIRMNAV

Rattus norvegicus [8] = experiment: Inhibition of 5-HT induced pressor response in pithed rats, after intravenous administration, activity is expressed as ED50; type: functional
Rattus norvegicus [9] = organism: Rattus norvegicus; experiment: Ratio of phenylephrine ED50/ 5-HT ED50; type: functional
Mus musculus = organism: Mus musculus; experiment: Inhibition of methyl phenidate induced stereotyped gnawing in mice; type: functional
[10] = biological target: Serotonin 2 (5-HT2) receptor (Rattus norvegicus, UniProt P30994+P08909+P14842); experiment: Inhibition of [3H]spiperone binding to 5-hydroxytryptamine 2 receptor from rat cortical membranes; type: cell membranes, Membrane
Rattus norvegicus [11] = organism: Rattus norvegicus; experiment: Inhibition of L-5-HTP (L-5-hydroxytryptophan) induced head twitches in rat; type: functional
Rattus norvegicus [12] = experiment: Percent reduction of blood pressure in spontaneously hypertensive rat after 10 min at intraperitoneal administration of 5 mg/kg; type: functional
D(2) dopamine receptor = D(2) dopamine receptor (Rattus norvegicus, UniProt P61169); experiment: Inhibition of [3H]spiperone binding to Dopamine receptor D2 from rat striatal membranes; type: cell membranes, Membrane
Chain of D(2) dopamine receptor (P61169 whole entry): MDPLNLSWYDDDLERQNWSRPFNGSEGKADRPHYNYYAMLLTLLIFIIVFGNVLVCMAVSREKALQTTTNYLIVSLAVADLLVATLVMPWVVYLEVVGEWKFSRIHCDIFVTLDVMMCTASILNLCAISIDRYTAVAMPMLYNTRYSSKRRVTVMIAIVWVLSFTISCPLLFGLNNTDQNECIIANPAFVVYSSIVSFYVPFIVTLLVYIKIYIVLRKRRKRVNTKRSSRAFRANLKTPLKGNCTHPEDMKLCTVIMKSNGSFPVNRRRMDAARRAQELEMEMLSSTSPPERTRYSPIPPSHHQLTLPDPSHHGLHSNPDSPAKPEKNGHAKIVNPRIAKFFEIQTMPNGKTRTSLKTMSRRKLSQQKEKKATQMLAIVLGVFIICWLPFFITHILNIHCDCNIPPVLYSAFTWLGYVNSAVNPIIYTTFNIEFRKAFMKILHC

Rattus norvegicus [13] = experiment: Percent reduction of systolic arterial blood pressure(SAP) in spontaneously hypertensive rat after 10 min at intraperitoneal administration of 5 mg/kg; type: functional
Rattus norvegicus [14] = experiment: Percent reduction of diastolic arterial blood pressure(DAP) in spontaneously hypertensive rat after 10 min at intraperitoneal administration of 5 mg/kg; type: functional
[15] = Rattus norvegicus, read-out: ED50

Chain of Norepinephrine transporter (Q9WTR4 whole entry): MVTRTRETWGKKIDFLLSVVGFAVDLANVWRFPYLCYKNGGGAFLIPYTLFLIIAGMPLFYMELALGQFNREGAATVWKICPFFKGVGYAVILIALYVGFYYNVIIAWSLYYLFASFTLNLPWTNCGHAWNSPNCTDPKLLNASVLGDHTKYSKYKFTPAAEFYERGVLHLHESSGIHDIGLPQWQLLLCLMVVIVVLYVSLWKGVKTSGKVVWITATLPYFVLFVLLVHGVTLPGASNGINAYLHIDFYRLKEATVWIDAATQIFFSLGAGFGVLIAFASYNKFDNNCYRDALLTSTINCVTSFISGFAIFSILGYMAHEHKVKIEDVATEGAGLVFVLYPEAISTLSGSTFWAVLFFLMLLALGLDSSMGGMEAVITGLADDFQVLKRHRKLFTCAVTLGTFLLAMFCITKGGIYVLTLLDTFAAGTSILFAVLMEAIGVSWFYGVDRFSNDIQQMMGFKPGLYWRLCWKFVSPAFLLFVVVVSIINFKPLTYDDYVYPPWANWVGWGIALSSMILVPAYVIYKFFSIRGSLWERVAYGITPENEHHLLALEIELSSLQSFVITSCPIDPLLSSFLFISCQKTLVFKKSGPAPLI
Chain of Sodium-dependent dopamine transporter (P23977 whole entry): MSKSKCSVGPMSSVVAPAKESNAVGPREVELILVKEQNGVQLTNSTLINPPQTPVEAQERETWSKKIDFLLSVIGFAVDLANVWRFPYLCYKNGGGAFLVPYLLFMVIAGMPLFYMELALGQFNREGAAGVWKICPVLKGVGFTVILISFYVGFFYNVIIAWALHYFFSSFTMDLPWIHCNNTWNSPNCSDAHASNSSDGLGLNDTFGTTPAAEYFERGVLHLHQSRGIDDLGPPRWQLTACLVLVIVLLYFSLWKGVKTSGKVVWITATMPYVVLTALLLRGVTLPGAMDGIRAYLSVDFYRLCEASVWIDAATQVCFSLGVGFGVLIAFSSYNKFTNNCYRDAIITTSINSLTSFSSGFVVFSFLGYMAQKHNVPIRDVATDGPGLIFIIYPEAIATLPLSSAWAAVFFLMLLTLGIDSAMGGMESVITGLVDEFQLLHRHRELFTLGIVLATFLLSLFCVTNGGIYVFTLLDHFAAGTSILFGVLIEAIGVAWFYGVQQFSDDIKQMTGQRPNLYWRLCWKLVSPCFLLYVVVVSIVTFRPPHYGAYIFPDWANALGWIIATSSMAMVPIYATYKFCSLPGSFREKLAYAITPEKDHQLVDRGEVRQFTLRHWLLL

| Compound | IC50 [1] [nM] | IC50 [2] [nM] | IC50 [4] [nM] | ED50 (Rattus norvegicus [5]) [µmol/kg] | IC50 [7] [nM] | ED50 (Rattus norvegicus [8]) [µmol/kg] | Ratio (Rattus norvegicus [9]) | ED50 (Mus musculus) [µmol/kg] | IC50 [10] [nM] | ED50 (Rattus norvegicus [11]) | Change (Rattus norvegicus [3]) [%] | Change (Rattus norvegicus [6]) [%] | IC50 (D(2) dopamine receptor) [nM] | further results |
| --- | --- | --- | --- | --- | --- | --- | --- | --- | --- | --- | --- | --- | --- | --- |
| O=C1NCCN1CCN1CCN([C@@H]2C[C@@H](c3ccc(F)cc3)c3ccccc32)CC1 (stereo in doubt; (+)2) [IRINDALONE] | 22000 | 25000 | 26 | 0.0045 | 14000 | 0.77 | 171 | > 72 | 3.4 | 0.56 µM/kg |  |  |  | Change (Rattus norvegicus [3]; […]): -42%; Change (Rattus norvegicus [6]; 0.02 mg/kg): -85%; Reduction (Rattus norvegicus [12]; 5 mg/kg): -48% |
| O.O=C1NCCN1CCN1CCN([C@H]2C[C@H](c3ccc(F)cc3)c3ccccc32)CC1 | 69 | 140 | 540 | 2.7 | 9700 |  |  | > 97 | 570 |  | 53 | -11 | 13000 | ED50 (Rattus norvegicus [11]; [15]): > 97 µmol/kg; Reduction (Rattus norvegicus [12]): 3% |
| Fc1ccc([C@H]2C[C@H](N3CCNCC3)c3ccccc32)cc1.O=C(O)/C=C\C(=O)O.O=C(O)/C=C\C(=O)O | 140 | 220 | 540 |  | 400 |  |  | > 76 | 180 |  | 41 | -3 | 8500 | ED50 (Rattus norvegicus [11]; [15]): 13 µmol/kg; Reduction (Rattus norvegicus [12]): -2% |
| O=C1NCCN1CCN1CCN([C@@H]2C[C@@H](c3ccc(F)cc3)c3ccccc32)CC1 (stereo in doubt; 27) [IRINDALONE] | 44 | 100 | 670 |  | > 100000 |  |  |  | 520 | >196 µM/kg |  |  | 4600 | Change (Rattus norvegicus [3]; […]): 33%; Change (Rattus norvegicus [6]; 0.02 mg/kg): -3%; Reduction (Rattus norvegicus [12]; 5 mg/kg): -3% |
| O=C(O)/C=C\C(=O)O.O=C(O)/C=C\C(=O)O.O=C1NCCN1CCN1CCN([C@@H]2C[C@@H](c3ccc(F)cc3)c3ccc(F)cc32)CC1 | 2500 | 5700 | 10 | 0.01 | 720 | 1.4 | 140 |  | 4.3 | 0.096 µmol/kg |  |  | 46 | Reduction (Rattus norvegicus [13]): -24%; Reduction (Rattus norvegicus [14]): -31% |
| Fc1ccc([C@@H]2C[C@@H](N3CCNCC3)c3ccccc32)cc1.O=C(O)/C=C\C(=O)O.O=C(O)/C=C\C(=O)O | 450 | 280 | 37 | 0.1 | 42 | 8.3 | 83 | > 76 | 18 | 1.7 µmol/kg | 10 | -40 | 580 | Reduction (Rattus norvegicus [13]): -25%; Reduction (Rattus norvegicus [14]): -31% |
| O=C(O)/C=C\C(=O)O.O=C(O)/C=C\C(=O)O.O=C1NCCN1CCN1CCN([C@H]2C[C@H](c3ccc(F)cc3)c3ccc(F)cc32)CC1 | 17 | 67 | 900 | 0.93 | 2200 |  |  | > 61 | 320 | 20 µmol/kg | 11 | 2 | 4500 | Increase (Rattus norvegicus [13]): 6%; Increase (Rattus norvegicus [14]): 4% |

Reference: ChEMBL document CHEMBL1124016, “Antihypertensive activity in a series of 1-piperazino-3-phenylindans with potent 5-HT2-antagonistic activity” (J Med Chem, 1988)
